# In patent US4067990A, “Process for the preparation of insecticidal compositions based on carbamic esters” (Airwick Industries, Inc., priority 1971, dated 1978):
# Like-named read-outs stand apart in the source and are kept apart here.
# Assays:
# [1] = Dissolution capacity of diluents/solvents for Dioxacarb and Arprocarb; type: physicochemical
# [2] = at 25° C
# [3] = at 20° C, solute Arprocarb, footnotes
compound,measurement,setting,value
CC#N [Acetonitrile],Dissolution capacity for DIOXACARB,"[1]; at 20° C, solute Dioxacarb",35.5 weight %
same,Dissolving capacity for Dioxacarb,"[1]; at 20° C, solute Dioxacarb",35.5%
same,Vapour pressure,[2],86 Torr
"CCOCCOCCOC(C)Oc1ccc2c(c1)OCO2 (centres unmarked) [T.U.O.B., 5-(3,6,9-trioxa-undecyl-2-oxy)-1,3-benzodioxole]",Dissolution capacity for ARPROCARB,"[1]; at 20° C, solute Arprocarb",5.0 weight %
same,Dissolving capacity for Arprocarb,[1]; [3],5%
same,Dissolution capacity for DIOXACARB,"[1]; at 20° C, solute Dioxacarb",2.9 weight %
same,Dissolving capacity for Dioxacarb,"[1]; at 20° C, solute Dioxacarb",2.9%
same,Vapour pressure,[2],< 0.005 Torr
CC(=O)OC(C)C [Isopropylacetate],Dissolution capacity for DIOXACARB,"[1]; at 20° C, solute Dioxacarb",6 weight %
same,Vapour pressure,[2],55 Torr
"CCC(N)(CO)CO [2-Amino-2-ethyl-1,3-propanediol]",Dissolution capacity for DIOXACARB,"[1]; at 20° C, solute Dioxacarb",2.4 weight %
same,Vapour pressure,[2],0.01 Torr
CCCCOC(=O)c1ccccc1C(=O)OCCCC [Dibutylphthalate],Dissolution capacity for DIOXACARB,"[1]; at 20° C, solute Dioxacarb",2.7 weight %
same,Dissolving capacity for Dioxacarb,"[1]; at 20° C, solute Dioxacarb",2.7%
same,Vapour pressure,[2],< 0.0001 Torr
same,Vapour pressure,[2]; listed as Dibutyl phthalate,ca. 0.0001 Torr
same,Vapour pressure,[2]; listed as dibutylphthalate,< 0.005 Torr
CC(C)=O [Acetone],Dissolution capacity for DIOXACARB,[1],28 weight %
same,Dissolving capacity for Dioxacarb,[1],28%
same,Vapour pressure,[2],225 Torr
CCCCCCCC/C=C\CCCCCCCC(=O)O [Oleic acid],Dissolution capacity for DIOXACARB,"[1]; at 20° C, solute Dioxacarb",1.2 weight %
same,Vapour pressure,[2],0.0002 Torr
CC(C)O [Isopropanol],Dissolution capacity for ARPROCARB,"[1]; at 20° C, solute Arprocarb",30 weight %
same,Dissolving capacity for Arprocarb,[1]; [3],approximately 30%
same,Dissolution capacity for DIOXACARB,"[1]; at 20° C, solute Dioxacarb",4.5 weight %
same,Dissolving capacity for Dioxacarb,"[1]; at 20° C, solute Dioxacarb",4.5%
same,Vapour pressure,[2],44 Torr
CCOC(=O)CC [Ethylpropionate],Dissolution capacity for DIOXACARB,"[1]; at 20° C, solute Dioxacarb",9 weight %
same,Vapour pressure,[2],37 Torr
CCCCCCCCCCCCCCCC [Hexadecane],Dissolution capacity for DIOXACARB,"[1]; at 20° C, solute Dioxacarb",0 weight %
same,Vapour pressure,[2],0.003 Torr
same,Vapour pressure,[2]; listed as hexadecane,< 0.005 Torr
CCCCC(CC)COC(=O)CCCCC(=O)OCC(CC)CCCC (centres unmarked) [Di(2-ethylhexyl)adipate)],Dissolution capacity for ARPROCARB,"[1]; at 20° C, solute Arprocarb",2.8 weight %
same,Dissolving capacity for Arprocarb,[1]; [3],2.8%
same,Dissolution capacity for DIOXACARB,"[1]; at 20° C, solute Dioxacarb",2.0 weight %
same,Vapour pressure,[2],0.007 Torr
same,Vapour pressure,[2]; listed as Di(2-ethyl-hexyl) adipate,~0.007 Torr
same,Vapour pressure,[2]; listed as di(ethyl-2-hexyl) adipate,< 0.005 Torr
CCCCC [Pentane],Dissolution capacity for ARPROCARB,[1],0.3 weight %
same,Dissolution capacity for DIOXACARB,[1],0.2 weight %
same,Dissolving capacity for Arprocarb,[1],0.3%
same,Dissolving capacity for Dioxacarb,[1],approximately 0.2%
same,Vapour pressure,[2],513 Torr
"CCCCCCCCCCCCO [Composition 1-Dodecanol, 1-Dodecanol]",Dissolution capacity for DIOXACARB,"[1]; at 20° C, solute Dioxacarb",0.8 weight %
same,Vapour pressure,[2],0.001 Torr
CCO [Ethanol],Dissolution capacity for ARPROCARB,[1],0.3 weight %
same,Dissolution capacity for DIOXACARB,[1],0.2 weight %
same,Dissolving capacity for Arprocarb,[1],40%
same,Dissolving capacity for Dioxacarb,[1],8%
CC(=O)OCC(C)C [Isobutylacetate],Dissolution capacity for DIOXACARB,"[1]; at 20° C, solute Dioxacarb",6 weight %
same,Vapour pressure,[2],17 Torr
OCC(O)CO [Glycerol],Dissolution capacity for DIOXACARB,"[1]; at 20° C, solute Dioxacarb",0.6 weight %
same,Vapour pressure,[2],< 0.0001 Torr
CCCCCCCCCCCCC1CC(=O)OC1=O (centres unmarked) [2-Dodecylsuccinic-acid anhydride],Dissolution capacity for DIOXACARB,"[1]; at 20° C, solute Dioxacarb",2.9 weight %
same,Vapour pressure,[2],0.007 Torr
C1CCOC1 [Tetrahydrofuran],Dissolution capacity for ARPROCARB,"[1]; at 20° C, solute Arprocarb",50 weight %
same,Dissolving capacity for Arprocarb,[1]; [3],approximately 50%
same,Dissolution capacity for DIOXACARB,"[1]; at 20° C, solute Dioxacarb",33.5 weight %
same,Dissolving capacity for Dioxacarb,"[1]; at 20° C, solute Dioxacarb",33.5%
same,Vapour pressure,[2],176 Torr
COC(C)=O [Methylacetate],Dissolution capacity for ARPROCARB,"[1]; at 20° C, solute Arprocarb",41 weight %
same,Dissolving capacity for Arprocarb,[1]; [3],41%
same,Dissolution capacity for DIOXACARB,"[1]; at 20° C, solute Dioxacarb",19.6 weight %
same,Dissolving capacity for Dioxacarb,"[1]; at 20° C, solute Dioxacarb",19.6%
same,Vapour pressure,[2],216 Torr
CCC(C)=O [Methylethylketone],Dissolution capacity for DIOXACARB,"[1]; at 20° C, solute Dioxacarb",5 weight %
same,Vapour pressure,[2],20 Torr
CCCCCCC [Heptane],Dissolution capacity for ARPROCARB,"[1]; at 20° C, solute Arprocarb",0.3 weight %
same,Dissolving capacity for Arprocarb,[1]; [3],0.3%
same,Dissolving capacity for Dioxacarb,"[1]; at 20° C, solute Dioxacarb",about 0.2%
same,Vapour pressure,[2],38.5 Torr
CCC(=O)OC [Methylpropionate],Dissolution capacity for DIOXACARB,"[1]; at 20° C, solute Dioxacarb",12 weight %
same,Vapour pressure,[2],83 Torr
CCCC(=O)OC [Methylbutyrate],Dissolution capacity for DIOXACARB,"[1]; at 20° C, solute Dioxacarb",8 weight %
same,Vapour pressure,[2],34 Torr
COCCOC(C)=O [2-Methoxyethyl acetate],Dissolution capacity for ARPROCARB,"[1]; at 20° C, solute Arprocarb",33 weight %
same,Dissolution capacity for DIOXACARB,"[1]; at 20° C, solute Dioxacarb",20 weight %
same,Vapour pressure,[2],5 Torr
CCCCCCCCCCCCCCCCCl [1-Chlorohexadecane],"Dissolving capacity for Arprocarb of the 1:1 mixture with 5-(3,6,9-trioxa-un-decyl-2-oxy)-1,3-benzodioxole","[1]; at 20° C, 1:1 mixture with T.U.O.B.",2%
same,Dissolution capacity for ARPROCARB,"[1]; at 20° C, solute Arprocarb",0.4 weight %
same,Dissolving capacity for Arprocarb,[1]; [3],0.4%
same,Dissolution capacity for DIOXACARB,"[1]; at 20° C, solute Dioxacarb",0.7 weight %
same,Dissolving capacity for Dioxacarb,"[1]; at 20° C, solute Dioxacarb",0.7%
same,Vapour pressure,[2],< 0.0001 Torr
same,Vapour pressure,[2]; listed as 1-chlorohexadecane,< 0.005 Torr
same,Vapour pressure,[2]; listed as Chlorohexadecane,below 0.0001 Torr
CCCCCO [Amylalcohol],Dissolution capacity for DIOXACARB,"[1]; at 20° C, solute Dioxacarb",2.6 weight %
same,Dissolving capacity for Dioxacarb,"[1]; at 20° C, solute Dioxacarb",2.6%
same,Vapour pressure,[2],2.5 Torr
CCCCOC(C)=O [Butylacetate],Dissolution capacity for DIOXACARB,[1],5 weight %
same,Vapour pressure,[2],11 Torr
ClCCl [Dichloromethane],Dissolution capacity for ARPROCARB,[1],48 weight %
same,Dissolution capacity for DIOXACARB,[1],45 weight %
same,Dissolving capacity for Arprocarb,[1],approximately 48%
same,Dissolving capacity for Dioxacarb,[1],45%
same,Vapour pressure,[2],420 Torr
CCCOC(C)=O [Propylacetate],Dissolution capacity for DIOXACARB,"[1]; at 20° C, solute Dioxacarb",6 weight %
same,Vapour pressure,[2],33 Torr
Tetrachlorodiphenyle,Dissolution capacity for DIOXACARB,"[1]; at 20° C, solute Dioxacarb",1.3 weight %
same,Dissolving capacity for Dioxacarb,"[1]; at 20° C, solute Dioxacarb",1.3%
same,Vapour pressure,[2],< 0.001 Torr
same,Vapour pressure,[2]; listed as Tetrachlorodiphenyl,below 0.001 Torr
same,Vapour pressure,[2]; listed as tetrachlorodiphenyl,< 0.005 Torr
ClC=C(Cl)Cl [Trichloroethylene],Dissolution capacity for DIOXACARB,"[1]; at 20° C, solute Dioxacarb",2 weight %
same,Dissolving capacity for Dioxacarb,"[1]; at 20° C, solute Dioxacarb",approximately 2%
same,Vapour pressure,[2],74 Torr
CO [Methanol],Dissolution capacity for DIOXACARB,"[1]; at 20° C, solute Dioxacarb",20.5 weight %
same,Dissolving capacity for Dioxacarb,"[1]; at 20° C, solute Dioxacarb",20.5%
same,Vapour pressure,[2],127 Torr
c1ccccc1 [Benzene],Dissolution capacity for DIOXACARB,[1],3 weight %
same,Dissolving capacity for Dioxacarb,[1],3%
CCCCCCCCCCCCCCBr [1-Bromotetradecane],Dissolution capacity for DIOXACARB,"[1]; at 20° C, solute Dioxacarb",0.1 weight %
same,Vapour pressure,[2],< 0.001 Torr
same,Vapour pressure,[2]; listed as 1-bromotetradecane,< 0.005 Torr
CCCC(=O)OCC [Ethylbutyrate],Dissolution capacity for DIOXACARB,"[1]; at 20° C, solute Dioxacarb",7 weight %
same,Vapour pressure,[2],17 Torr
"CCCCOCCOCCOCCCC [5,8,11-Trioxapentadecane, 5,8,11-Trioxapenta-decane]",Dissolution capacity for DIOXACARB,"[1]; at 20° C, solute Dioxacarb",3.2 weight %
same,Vapour pressure,[2],0.002 Torr
CCOC(C)=O [Ethylacetate],Dissolution capacity for DIOXACARB,"[1]; at 20° C, solute Dioxacarb",10.5 weight %
same,Dissolving capacity for Dioxacarb,"[1]; at 20° C, solute Dioxacarb",10.5%
same,Vapour pressure,[2],97 Torr
ter. Dodecanethiol,Dissolution capacity for DIOXACARB,"[1]; at 20° C, solute Dioxacarb",0.2 weight %
same,Vapour pressure,[2],0.008 Torr
CCCCCC [Hexane],Dissolution capacity for ARPROCARB,"[1]; at 20° C, solute Arprocarb",0.3 weight %
same,Dissolving capacity for Arprocarb,[1]; [3],0.3%
same,Dissolution capacity for DIOXACARB,"[1]; at 20° C, solute Dioxacarb",0.2 weight %
same,Dissolving capacity for Dioxacarb,"[1]; at 20° C, solute Dioxacarb",approximately 0.2%
same,Vapour pressure,[2],151 Torr
CCCCCCCCOC(=O)c1ccccc1C(=O)OCCCCCCCC [Dioctylphthalate],Dissolution capacity for ARPROCARB,"[1]; at 20° C, solute Arprocarb",2.6 weight %
same,Dissolving capacity for Arprocarb,[1]; [3],2.6%
same,Dissolution capacity for DIOXACARB,"[1]; at 20° C, solute Dioxacarb",0.1 weight %
same,Dissolving capacity for Dioxacarb,"[1]; at 20° C, solute Dioxacarb",0.1%
same,Vapour pressure,[2],< 0.0001 Torr
same,Vapour pressure,[2]; listed as Dioctyl phthalate,below 0.0001 Torr
same,Vapour pressure,[2]; listed as dioctylphthalate,< 0.005 Torr
C1COCCO1 [Dioxan],Dissolution capacity for DIOXACARB,"[1]; at 20° C, solute Dioxacarb",23 weight %
same,Dissolving capacity for Dioxacarb,"[1]; at 20° C, solute Dioxacarb",23%
same,Vapour pressure,[2],35 Torr
CCCCCCCC/C=C/CCCCCCCC(=O)CCCCCCC/C=C/CCCCCCCC [Oleone],Dissolution capacity for DIOXACARB,"[1]; at 20° C, solute Dioxacarb",0.2 weight %
same,Vapour pressure,[2],< 10^-6 Torr
